From ChEMBL document CHEMBL1131882, “Unsymmetrical cyclic ureas as HIV-1 protease inhibitors: novel biaryl indazoles as P2/P2' substituents” (Bioorg Med Chem Lett, 1999)

How the values were obtained:
[1] = target: Human immunodeficiency virus type 1 protease (Human immunodeficiency virus 1, UniProt Q72874); assay: Binding affinity for HIV -1 Protease
[2] = target: Human immunodeficiency virus type 1 protease (Human immunodeficiency virus 1) (UniProt Q72874); assay: Inhibitory activity against HIV -1 Protease in whole cell assay
[3] = tested on: Human immunodeficiency virus 1; assay: Inhibitory activity against Ritonavir resistant virus mutant strain; type: functional

| SMILES | Ki [1] [nM] | IC90 [2] [nM] | IC90 [3] [nM] |
| --- | --- | --- | --- |
| Nc1cccc(CN2C(=O)N(Cc3ccc4[nH]nc(-c5ccc(C(F)(F)F)cc5)c4c3)[C@H](Cc3ccccc3)[C@H](O)[C@@H](O)[C@H]2Cc2ccccc2)c1 | 0.25 | 255 | – |
| Nc1cccc(CN2C(=O)N(Cc3ccc4[nH]nc(-c5cc[nH]n5)c4c3)[C@H](Cc3ccccc3)[C@H](O)[C@@H](O)[C@H]2Cc2ccccc2)c1 | 0.058 | 108 | 525 |
| Nc1cccc(CN2C(=O)N(Cc3ccc4[nH]ncc4c3)[C@H](Cc3ccccc3)[C@H](O)[C@@H](O)[C@H]2Cc2ccccc2)c1 | – | 11 | 825 |
| COc1cccc(-c2[nH]nc3ccc(CN4C(=O)N(Cc5cccc(N)c5)[C@H](Cc5ccccc5)[C@H](O)[C@@H](O)[C@H]4Cc4ccccc4)cc23)c1 | – | 33 | 3140 |
| Nc1cccc(CN2C(=O)N(Cc3ccc4[nH]nc(-c5ccc(F)cc5)c4c3)[C@H](Cc3ccccc3)[C@H](O)[C@@H](O)[C@H]2Cc2ccccc2)c1 | 0.3 | 39 | > 5000 |
| Nc1cccc(CN2C(=O)N(Cc3ccc4[nH]nc(-c5ccsc5)c4c3)[C@H](Cc3ccccc3)[C@H](O)[C@@H](O)[C@H]2Cc2ccccc2)c1 | 0.13 | 32 | > 5000 |
| Nc1cccc(CN2C(=O)N(Cc3ccc4[nH]nc(-c5cccc(C(F)(F)F)c5)c4c3)[C@H](Cc3ccccc3)[C@H](O)[C@@H](O)[C@H]2Cc2ccccc2)c1 | 0.61 | 39 | – |
| Nc1cccc(CN2C(=O)N(Cc3ccc4[nH]nc(-c5cccs5)c4c3)[C@H](Cc3ccccc3)[C@H](O)[C@@H](O)[C@H]2Cc2ccccc2)c1 | 0.18 | 31 | > 5000 |
| COc1ccc(-c2[nH]nc3ccc(CN4C(=O)N(Cc5cccc(N)c5)[C@H](Cc5ccccc5)[C@H](O)[C@@H](O)[C@H]4Cc4ccccc4)cc23)cc1 | 0.26 | 14 | 4190 |
| COc1cccc(-c2n[nH]c3ccc(CN4C(=O)N(Cc5cccc(N)c5)[C@H](Cc5ccccc5)[C@H](O)[C@@H](O)[C@H]4Cc4ccccc4)cc23)c1 | 0.24 | – | – |
| CC(C)c1nc(CN(C)C(=O)N[C@H](C(=O)N[C@@H](Cc2ccccc2)C[C@H](O)[C@H](Cc2ccccc2)NC(=O)OCc2cncs2)C(C)C)cs1 [RITONAVIR] | – | – | 4500 |
| Nc1cccc(CN2C(=O)N(Cc3ccc4[nH]nc(-c5cccc(N)c5)c4c3)[C@H](Cc3ccccc3)[C@H](O)[C@@H](O)[C@H]2Cc2ccccc2)c1 | 0.09 | 30 | 1300 |
